Data reported in EP0326331B1, “Substituted quinolines and cinnolines” (Dow AgroSciences LLC, priority 1988, dated 1989).
Where two headings read alike, the source gives them in different places.

Tests used:
Assay type in all cases: in vivo
corn rootworm = assay: Mite/insect screen, CRW; settings: for mortality at 12 ppm / mortality at 24 ppm: read-out: CRW RESULTS %
How it was run: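 Percent mortality is evaluated once the standard exposure period ends. Test material is applied as a water dilution of an acetone/alcohol (50:50) stock carrying two sulfonate/nonionic emulsifiers (23 and 13 g per liter).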

[1] = tested on: Twospotted spider mites (Tetranychus urticae Koch); assay: Mite/insect screen, SM; settings: for mortality at 200 ppm / mortality at 400 ppm: Tetranychus urticae, read-out: SM RESULTS %
How it was run: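 Compounds dissolved in 50:50 acetone/alcohol containing sulfonate/nonionic emulsifier blends, then diluted with water to the indicated concentrations. Leaves sprayed on both surfaces to runoff at 10 psi and dried one hour. Percent mortality scored after standard exposure periods.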

[2] = tested on: Pseudoperonospora cubensis (downy mildew); assay: Test 1 greenhouse foliar spray screen, downy mildew on squash; settings: for pest or weed control at 400 ppm: Pseudoperonospora cubensis, foliar, Test 1, foliar spray on squash, disease control rating at 400 ppm / 100 ppm, read-out: DOWN MDEW; for DOWN MDEW: disease control rating, foliar spray on squash, 400 ppm (+++ at 100 ppm)
[3] = tested on: Pyricularia oryzae (rice blast); assay: whole plant or invertebrate; settings: for pest or weed control at 400 ppm: Pyricularia oryzae, foliar, read-out: RICE BLAST, Test 1, foliar spray on rice, disease control rating at 400 ppm / 100 ppm; for RICE BLAST: disease control rating, foliar spray on rice, 400 ppm (+++ at 100 ppm)
[4] = tested on: Venturia inaequalis (apple scab); assay: Test 1 greenhouse foliar spray screen, apple scab on apple seedling; settings: for pest or weed control at 400 ppm: Venturia inaequalis, Test 1, foliar spray on apple seedling, disease control rating at 400 ppm / 100 ppm, read-out: APPL SCAB; for APPL SCAB: disease control rating, foliar spray on apple seedling, 400 ppm (+++ at 100 ppm)
[5] = tested on: melon aphids (Aphis gossypii Glover); assay: Mite/insect screen, MA; settings: for mortality at 200 ppm / mortality at 400 ppm: Aphis gossypii, read-out: MA RESULTS %
How it was run: (§1)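 Formulation: acetone/alcohol 50:50 + sulfonate/nonionic emulsifiers, water-diluted to indicated concs. Spray both leaf surfaces to runoff, 10 psi; dry 1 h. Armyworm: 2 excised uninfested leaves in Petri dish. Score % mortality after standard exposure.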

[6] = tested on: Cercospora beticola (leaf spot); assay: Test 1 greenhouse foliar spray screen, leaf spot on sugar beet; settings: for pest or weed control at 400 ppm: Cercospora beticola, Test 1, foliar spray on sugar beet, disease control rating at 400 ppm / 100 ppm; for LEAF SPOT: disease control rating, foliar spray on sugar beet, 400 ppm (+++ at 100 ppm)
[7] = tested on: Puccinia recondita tritici (leaf rust); assay: Test 1 greenhouse foliar spray screen, leaf rust on wheat; settings: for pest or weed control at 400 ppm: Puccinia recondita, foliar, Test 1, foliar spray on wheat, disease control rating at 400 ppm / 100 ppm; for LEAF RUST: disease control rating, foliar spray on wheat, 400 ppm (+++ at 100 ppm)
[8] = tested on: Septoria tritici (leaf blotch); assay: Test 1 greenhouse foliar spray screen, leaf blotch on wheat; settings: for pest or weed control at 400 ppm: Zymoseptoria tritici, Test 1, foliar spray on wheat, disease control rating at 400 ppm / 100 ppm, read-out: LEAF BLOT; for LEAF BLOT: disease control rating, foliar spray on wheat, 400 ppm (+++ at 100 ppm)
[9] = tested on: Erysiphe graminis tritici (powdery mildew); assay: Test 1 greenhouse foliar spray screen, powdery mildew on wheat; settings: for pest or weed control at 400 ppm: Blumeria graminis, foliar, Test 1, foliar spray on wheat, disease control rating at 400 ppm / 100 ppm, read-out: POWD MDEW; for POWD MDEW: disease control rating, foliar spray on wheat, 400 ppm (+++ at 100 ppm)
[10] = tested on: Botrytis cinerea (gray mold); assay: Test 1 greenhouse foliar spray screen, gray mold on grape berries; settings: for pest or weed control at 400 ppm: Botrytis cinerea, foliar, Test 1, spray on grape berries, disease control rating at 400 ppm / 100 ppm; for GRAY MOLD: disease control rating, spray on grape berries, 400 ppm (+++ at 100 ppm)
[11] = tested on: southern armyworm (Spodopetra eridania Cramer); assay: Mite/insect screen, SAW; settings: for mortality at 200 ppm / mortality at 400 ppm: Spodoptera eridania, read-out: SAW RESULTS %
How it was run: as §1

[12] = percent mortality, CRW rate 12.00 ppm
[13] = percent mortality, CRW rate 24.00 ppm
[14] = foliar, percent mortality, rate 200 ppm, foliar spray on squash
[15] = foliar, percent mortality, rate 400 ppm, foliar spray on squash
[16] = percent mortality, CRW RATE 12.00 PPM
[17] = percent mortality, SAW, SM & MA RATE 200 PPM
[18] = percent mortality, SAW, SM & MA RATE 400 PPM
[19] = summary statement in the description

SMILES | pest or weed control at 400 ppm [2] [%] | pest or weed control at 400 ppm [3] [%] | pest or weed control at 400 ppm [4] [%] | pest or weed control at 400 ppm [6] [%] | pest or weed control at 400 ppm [7] [%] | pest or weed control at 400 ppm [8] [%] | pest or weed control at 400 ppm [9] [%] | pest or weed control at 400 ppm [10] [%] | mortality at 12 ppm (corn rootworm; [16]) [%] | mortality at 200 ppm [1, 17] [%] | DOWN MDEW [2] | RICE BLAST [3] | APPL SCAB [4] | mortality at 200 ppm [5, 17] [%] | LEAF SPOT [6] | LEAF RUST [7] | LEAF BLOT [8] | POWD MDEW [9] | GRAY MOLD [10] | mortality at 200 ppm [11, 17] [%] | further results
COc1ccccc1CCOc1ccnc2ccccc12 [Example 229, 4-[2-(2-methoxyphenyl)ethoxy]quinoline] | 90 to 100 | 90 to 100 | 0 to 19 | 0 to 19 | 90 to 100 | 20 to 89 | 20 to 89 | 0 to 19 |  |  |  |  |  |  |  |  |  |  |  |  | mortality at 12 ppm (corn rootworm; [12]): 0%; mortality at 24 ppm (corn rootworm; [13]): 0%; mortality at 200 ppm [1, 14]: 50%; mortality at 400 ppm [1, 15]: 0%; mortality at 200 ppm [5, 14]: 50%; mortality at 400 ppm [5, 15]: 0%; mortality at 200 ppm [11, 14]: 0%; mortality at 400 ppm [11, 15]: 0%
c1ccc(CCCc2ccnc3ccccc23)cc1 [Example 252, 4-(3-phenylpropyl)quinoline] | 90 to 100 | 90 to 100 | 20 to 89 | 0 to 19 | 90 to 100 | 20 to 89 | 90 to 100 | 0 to 19 |  |  |  |  |  |  |  |  |  |  |  |  | mortality at 12 ppm (corn rootworm; [12]): 0%; mortality at 24 ppm (corn rootworm; [13]): 0%; mortality at 200 ppm [1, 14]: 90%; mortality at 400 ppm [1, 15]: 90%; mortality at 200 ppm [5, 14]: 100%; mortality at 400 ppm [5, 15]: 100%; mortality at 200 ppm [11, 14]: 0%; mortality at 400 ppm [11, 15]: 0%
Clc1cc(NCCc2ccccc2)c2cccc(Cl)c2n1 [Example 93, 2,8-dichloro-N-(2-phenylethyl)-4-quinolinamine] |  |  |  |  |  |  |  |  | 0 | 0 | - (0-19% control at 400 ppm) | - (0-19% control at 400 ppm) | - (0-19% control at 400 ppm) | 0 | + (20-89% control at 400 ppm) | - (0-19% control at 400 ppm) | + (20-89% control at 400 ppm) | - (0-19% control at 400 ppm) | - (0-19% control at 400 ppm) | 0 | 
c1ccc(C2CC2Nc2ccnc3ccccc23)cc1 (centres unmarked) [Example 120, N-(2-phenylcyclopropyl)-4-quinolinamine] |  |  |  |  |  |  |  |  | 0 | 0 | ++ (90-100% control at 400 ppm) | + (20-89% control at 400 ppm) | - (0-19% control at 400 ppm) | 0 | +++ (90-100% control at 100 ppm) | + (20-89% control at 400 ppm) | - (0-19% control at 400 ppm) | - (0-19% control at 400 ppm) | - (0-19% control at 400 ppm) | 0 | 
Fc1ccc(CCNc2ccnc3c(Cl)cccc23)cc1 [Example 51, 8-chloro-N-[2-(4-fluorophenyl)ethyl]-4-quinolinamine] |  |  |  |  |  |  |  |  | 0 | 0 | +++ (90-100% control at 100 ppm) | + (20-89% control at 400 ppm) | - (0-19% control at 400 ppm) | 0 | +++ (90-100% control at 100 ppm) | + (20-89% control at 400 ppm) | - (0-19% control at 400 ppm) | - (0-19% control at 400 ppm) | - (0-19% control at 400 ppm) | 0 | mortality at 24 ppm (corn rootworm; percent mortality, CRW RATE 24.00 PPM): 0%; mortality at 400 ppm [1, 18]: 0%; mortality at 400 ppm [5, 18]: 0%; mortality at 400 ppm [11, 18]: 20%
Fc1cccc2c(NCCc3ccc(C(F)(F)F)cc3)ccnc12 [Example 83, 8-fluoro-N-[2-[4-(trifluoromethyl)phenyl]ethyl]-4-quinolinamine] |  |  |  |  |  |  |  |  | 0 | 0 | ++ (90-100% control at 400 ppm) | ++ (90-100% control at 400 ppm) | - (0-19% control at 400 ppm) | 0 | + (20-89% control at 400 ppm) | +++ (90-100% control at 100 ppm) | - (0-19% control at 400 ppm) | + (20-89% control at 400 ppm) | +++ (90-100% control at 100 ppm) | 0 | 
Fc1cccc2c(OCCc3cccc(C(F)(F)F)c3)ccnc12 [Example 203, 8-fluoro-4-[2-(3-(trifluoromethyl)phenyl)ethoxy]quinoline] | 90 to 100 | 90 to 100 | 20 to 89 | 20 to 89 | 90 to 100 | 90 to 100 | 20 to 89 | 0 to 19 |  |  |  |  |  |  |  |  |  |  |  |  | mortality at 12 ppm (corn rootworm): 0%; mortality at 24 ppm (corn rootworm): 0%; mortality at 200 ppm ([1]; foliar): 0%; mortality at 400 ppm ([1]; foliar): 0%; activity as miticides [1, 19]: particularly excellent activity; activity against downy mildew [2, 19]: particularly excellent activity; activity against rice blast [3, 19]: particularly excellent activity; mortality at 200 ppm ([5]; foliar): 100%; mortality at 400 ppm ([5]; foliar): 90%; mortality at 200 ppm ([11]; foliar): 10%; mortality at 400 ppm ([11]; foliar): 0%
Fc1cccc2c(NCCc3ccccc3)c(Br)cnc12 [Example 91, 3-bromo-8-fluoro-N-(2-phenylethyl)-4-quinolinamine] |  |  |  |  |  |  |  |  | 0 | 0 | ++ (90-100% control at 400 ppm) | + (20-89% control at 400 ppm) | - (0-19% control at 400 ppm) | 0 | - (0-19% control at 400 ppm) | - (0-19% control at 400 ppm) | - (0-19% control at 400 ppm) | + (20-89% control at 400 ppm) | - (0-19% control at 400 ppm) | 0 | 
O=[N+]([O-])c1ccc(CCNc2ccnc3c(F)cccc23)cc1 [Example 117, 8-fluoro-N-[2-(4-nitrophenyl)ethyl]-4-quinolinamine] |  |  |  |  |  |  |  |  | 0 | 0 | +++ (90-100% control at 100 ppm) | + (20-89% control at 400 ppm) | - (0-19% control at 400 ppm) | 0 | + (20-89% control at 400 ppm) | + (20-89% control at 400 ppm) | - (0-19% control at 400 ppm) | + (20-89% control at 400 ppm) | - (0-19% control at 400 ppm) | 0 | CRW RESULTS % (corn rootworm; [16]): 0%; SM RESULTS % [1, 17]: 0%; MA RESULTS % [5, 17]: 0%; SAW RESULTS % [11, 17]: 0%
